Target: T1, TNIK (Homo sapiens, UniProt Q9UKE5)
T1 construct: purchased Thermo Fisher Scientific (Life Technologies) SelectScreen
Test: SelectScreen LanthaScreen
Type: binding
Conditions: read-out: % displacement
How it was run: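 NU5455 was profiled across the SelectScreen Broad panel of kinase activity and binding assays. Z'LYTE reactions such as CSF1R ran at apparent Km ATP, while the Adapta CAMK1 assay used ATP listed as 10. Values are given as percent.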

T1 sequence (Q9UKE5 whole entry): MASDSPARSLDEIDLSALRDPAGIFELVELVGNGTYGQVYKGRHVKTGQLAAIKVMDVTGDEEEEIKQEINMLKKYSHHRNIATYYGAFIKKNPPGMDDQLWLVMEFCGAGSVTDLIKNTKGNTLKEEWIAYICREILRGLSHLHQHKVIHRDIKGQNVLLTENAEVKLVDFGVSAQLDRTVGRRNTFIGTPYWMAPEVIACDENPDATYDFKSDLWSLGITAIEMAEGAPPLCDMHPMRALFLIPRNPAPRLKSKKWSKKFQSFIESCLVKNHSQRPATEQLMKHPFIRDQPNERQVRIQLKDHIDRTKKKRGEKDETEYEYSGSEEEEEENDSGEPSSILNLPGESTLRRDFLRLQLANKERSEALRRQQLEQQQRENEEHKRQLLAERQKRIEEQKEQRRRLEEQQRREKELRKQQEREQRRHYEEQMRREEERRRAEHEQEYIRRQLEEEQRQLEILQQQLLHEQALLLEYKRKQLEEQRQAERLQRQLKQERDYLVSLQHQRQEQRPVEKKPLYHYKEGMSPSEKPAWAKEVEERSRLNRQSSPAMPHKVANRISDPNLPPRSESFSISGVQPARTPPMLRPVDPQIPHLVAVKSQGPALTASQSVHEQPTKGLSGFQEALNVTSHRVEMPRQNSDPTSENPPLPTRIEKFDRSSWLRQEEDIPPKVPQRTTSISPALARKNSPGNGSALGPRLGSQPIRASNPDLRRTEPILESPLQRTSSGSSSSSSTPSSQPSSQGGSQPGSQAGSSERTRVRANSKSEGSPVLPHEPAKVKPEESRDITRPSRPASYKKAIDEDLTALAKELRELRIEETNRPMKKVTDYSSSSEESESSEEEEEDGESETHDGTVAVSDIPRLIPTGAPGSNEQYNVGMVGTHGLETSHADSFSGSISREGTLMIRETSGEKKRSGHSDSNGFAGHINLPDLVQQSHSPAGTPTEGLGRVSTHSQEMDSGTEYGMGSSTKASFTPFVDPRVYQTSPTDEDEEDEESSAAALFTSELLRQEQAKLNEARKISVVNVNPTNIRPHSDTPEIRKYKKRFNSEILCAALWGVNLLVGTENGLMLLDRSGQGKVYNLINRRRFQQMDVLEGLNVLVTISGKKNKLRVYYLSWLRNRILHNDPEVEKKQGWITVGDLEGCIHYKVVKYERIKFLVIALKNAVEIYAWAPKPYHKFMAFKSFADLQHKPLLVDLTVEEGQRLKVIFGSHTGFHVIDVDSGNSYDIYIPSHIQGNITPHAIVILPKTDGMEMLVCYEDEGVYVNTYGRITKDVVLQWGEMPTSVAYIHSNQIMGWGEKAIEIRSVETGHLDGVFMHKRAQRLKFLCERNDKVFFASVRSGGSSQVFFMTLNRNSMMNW

`CN(C(=O)CN1CCOCC1)c1ccc2sc3c(-c4cccc5c(=O)cc(N6CC7CCC(C6)O7)oc45)cccc3c2c1` [NU5455] showed an inhibition at 1 µM of 7.3%.

Reference: PMC6934184, “Selective DNA-PKcs inhibition extends the therapeutic index of localized radiotherapy and chemotherapy” (The Journal of Clinical Investigation, 2019)
